Paper PMC7532004, “Site-specific effects of neurosteroids on GABAA receptor activation and desensitization” (eLife, 2020)
Values joined by “and” are separate entries in the source; they are usually repeats but may differ in a detail not shown here. Equal entries are not always repeated. Where two headings read alike, the source gives them in different places.

Assays:
α1(Q242L)β3 GABAAR = α1(Q242L)β3 GABAAR (UniProt P28472+P62813, Q268L); assay: [3H]muscimol binding to HEK cell membranes, intersubunit site mutant; set-up: expressed in transfected cells; host or cells: HEK293S GnTI- (ATCC CRL-3022), transient; species or system rat α1, human β3; details: for Emax (% of control) of [3H]muscimol binding: 100% means no effect
Procedure: (§1) The human α1 and β3 GABAAR subunits were subcloned into pcDNA3 for molecular manipulations and cRNA synthesis. Using QuikChange Site-Directed Mutagenesis Kit (Agilent Technologies, Santa Clara, CA), a FLAG tag was first added to the α1 subunit then an 8xHis tag was added to generate the following His-FLAG tag tandem ([…]), inserted between the fourth and fifth residues of the mature peptide. The α1 and β3 subunits were then transferred into the pcDNA4/TO and pcDNA5/TO vectors (Thermo Fisher Scientific), respectively, for tetracycline inducible expression. Transient expression was done using the GABAAR subunits rat α1FLAG ([Ueno et al., 1996]) and human β3 obtained from Geoffrey White (Neurogen, Branford, CT), each were subcloned into pcDNA3 for molecular manipulations and cRNA synthesis. Point mutations were generated using the QuikChange Site-Directed Mutagenesis Kit (Agilent) and the coding region was fully sequenced prior to use. The cDNAs were linearized with XbaI (NEB Labs, Ipswich, MA), and the cRNAs were generated using T7 mMessage mMachine (Ambion, Austin, TX).
(§2) [^3H]muscimol-binding assays were performed using a previously described method ([Chen et al., 2019]). […] Assay tubes were incubated for 1 hr on ice in the dark. […] Membranes were collected on Whatman/GF-C glass filter papers using a Brandel cell harvester (Gaithersburg, MD). To perform [^3H]muscimol binding isotherms, 100 μg/ml aliquots of membrane protein were incubated with 0.3 nM–1 μM [^3H]muscimol for 1 hr on ice in the dark. The specific activity for [^3H]muscimol concentrations from 30 nM to 1 μM was reduced to 2 Ci/mmol by dilution with nonradioactive muscimol. The membranes were collected on Whatman/GF-B glass filter papers using a vacuum manifold. […] For [^3H]muscimol-binding experiments examining competitive interactions between neurosteroids, the combined neurosteroids (0.3 μM 3α5αP or 3 μM KK148 ±30 μM KK150) or the same volume of dimethyl sulfoxide (DMSO) were added to the membranes which were then incubated with 3 nM [^3H]muscimol on ice for 1 hr. Time courses of neurosteroid [^3H]muscimol binding enhancement were examined by adding 10 µM of neurosteroids (3α5αP, 3β5αP) to membranes that had been fully equilibrated with 3 nM [^3H]muscimol for 1 hr on ice; binding was then measured as a function of time at 1, 3, 10, 30, 60 min. The membranes were collected on Whatman/GF-B glass filter papers using a vacuum manifold. Radioactivity bound to the filters was measured by liquid scintillation spectrometry using Bio-Safe II (Research Products International, Mount Prospect, IL).

α1β3(Y284F) GABAAR = molecular target: T1, α1β3(Y284F) GABAAR (UniProt P28472+P62813, Y309F); assay: [3H]muscimol binding to HEK cell membranes, β3 intrasubunit site mutant; set-up: species or system rat α1, human β3; details: for Emax (% of control) of [3H]muscimol binding: 100% means no effect
T1 construct: expressed in transfected cells; host or cells: HEK293S GnTI- (ATCC CRL-3022), transient
Procedure: as §1, §2

α1β3 GABAAR = molecular target: T2, α1β3 GABAAR (UniProt P28472+P62813); assay: Two-electrode voltage clamp in Xenopus laevis oocytes, WT receptor; assay type: cell-based; details: for Potentiation of GABA-elicited currents: 0.3 μM GABA, 10 μM neurosteroid, oocytes; for % of desensitization (reduction of steady-state current): 1 mM GABA, 3β5αP 3 μM, KK148 10 μM, KK150 10 μM, WT
T2 construct: expressed in transfected cells; host or cells: Xenopus laevis oocytes injected with cRNA (α1:β3 5:1)
Procedure: The wild-type and mutant α1β3 GABAAR were expressed in oocytes from the African clawed frog (Xenopus laevis). Frogs were purchased from Xenopus 1 (Dexter, MI), and housed and cared for in a Washington University Animal Care Facility under the supervision of the Washington University Division of Comparative Medicine. Harvesting of oocytes was conducted under the Guide for the Care and Use of Laboratory Animals as adopted and promulgated by the National Institutes of Health. The animal protocol (No. 20180191) was approved by the Animal Studies Committee of Washington University in St. Louis. The oocytes were injected with a total of 12 ng cRNA. The ratio of cRNAs was 5:1 ratio (α1:β3) to minimize the expression of β3 homomeric receptors. Following injection, the oocytes were incubated in ND96 (96 mM NaCl, 2 mM KCl, 1.8 mM CaCl2, 1 mM MgCl2, 5 mM HEPES; pH 7.4) with supplements (2.5 mM Na pyruvate, 100 U/ml penicillin, 100 μg/ml streptomycin and 50 μg/ml gentamycin) at 16°C for 2 days prior to conducting electrophysiological recordings. The electrophysiological recordings were conducted at room temperature using standard two-electrode voltage clamp. The oocytes were clamped at −60 mV. The chamber (RC-1Z, Warner Instruments, Hamden, CT) was perfused with ND96 at 5–8 ml/min. Solutions were gravity-applied from 30 ml glass syringes with glass luer slips via Teflon tubing. The current responses were amplified with an OC-725C amplifier (Warner Instruments, Hamden, CT), digitized with a Digidata 1200 series digitizer (Molecular Devices), and stored using pClamp (Molecular Devices). Current traces were analyzed with Clampfit (Molecular Devices). […] The stock solution of muscimol was made at 20 mM in ND96 and stored at 4°C. The steroids were dissolved in DMSO at 10–20 mM and stored at room temperature.
The converted current traces were analyzed in the framework of the three-state Resting-Open-Desensitized activation model ([Germann et al., 2019a]; [Germann et al., 2019b]). The model enables analysis and prediction of peak responses using four parameters that characterize the extent of constitutive activity (termed L; L = Resting/Open), affinity of the resting receptor to agonist (KC), affinity of the open receptor to agonist (KO), and the number of agonist binding sites (N). Analysis and prediction of steady-state responses requires an additional parameter, termed Q, that describes the equilibrium between open and desensitized receptors (Q = Open/Desensitized).
The Popen of the peak response is expressed as: Popen,peak=1/1+LΓ and the Popen of the steady-state response as: Popen,steady−state=1/1+1/Q+LΓ where Γ=[(1+[X]/KC)/(1+[X]/KO)]^N
[X]is the concentration of agonist present, and other terms are as described above. In practice, the value of LΓ was calculated using the experimentally determined Popen of the peak response, and then used as a fixed value in estimating Q from Popen,steady-state.
The Pdesensitized was calculated using: Pdesensitized=1/1+Q+QLΓ
Calculated probabilities (e.g. Popen, Pdesentitized) are reported as mean ± SD.

Structure (SMILES) | EC50 (α1(Q242L)β3 GABAAR) [nM] | Hill slope for modulation of [3H]muscimol binding (α1(Q242L)β3 GABAAR; α1(Q242L)β3, 3 nM [3H]muscimol) | Emax (% of control) of [3H]muscimol binding (α1(Q242L)β3 GABAAR; α1(Q242L)β3, 3 nM [3H]muscimol) | Hill slope for modulation of [3H]muscimol binding (α1β3(Y284F) GABAAR; α1β3(Y284F), 3 nM [3H]muscimol) | Emax (% of control) of [3H]muscimol binding (α1β3(Y284F) GABAAR; α1β3(Y284F), 3 nM [3H]muscimol) | Potentiation of GABA-elicited currents (α1β3 GABAAR) | % of desensitization (reduction of steady-state current) (α1β3 GABAAR) | other results
NCc1cc(=O)[nH]o1 [muscimol] |  |  |  |  |  |  |  | Bmax of [3H]muscimol binding isotherm (α1(Q242L)β3 GABAAR; α1(Q242L)β3): 9.9 ± 0.6 (P > 0.99 vs. WT) pmol/mg; Kd (α1(Q242L)β3 GABAAR; α1(Q242L)β3, read-out: Kd of [3H]muscimol binding isotherm): 44.3 ± 4.6 nM; Bmax of [3H]muscimol binding isotherm (α1β3(Y284F) GABAAR; α1β3(Y284F)): 10.6 ± 0.9 (P > 0.99 vs. WT) pmol/mg; Kd (α1β3(Y284F) GABAAR; α1β3(Y284F), read-out: Kd of [3H]muscimol binding isotherm): 46.6 ± 3.8 nM; Peak Popen (α1β3 GABAAR; 20 nM muscimol): 0.012 ± 0.004; Calculated steady-state Pdesensitized (α1β3 GABAAR; 20 nM muscimol alone): 0.1001; Steady-state Popen (α1β3 GABAAR; 20 nM muscimol alone): 0.011 ± 0.004
CC(=O)[C@H]1CC[C@H]2[C@@H]3CC[C@H]4C[C@H](O)CC[C@]4(C)[C@H]3CC[C@]12C [3α5αP, allopregnanolone] | 2660 | 1.16 ± 0.37 | **159.8 ± 10.9 % of control | 0.87 ± 0.16 | 342.3 ± 13.9 % of control | potentiation |  | Decrease of enhancement of [3H]muscimol binding by mutation (α1(Q242L)β3 GABAAR; β3(+)–α1(-) intersubunit site mutation vs WT): ~ 80%; EC50 (α1β3(Y284F) GABAAR): 190 ± 40 nM
CC(=O)[C@H]1CC[C@H]2[C@@H]3CC[C@H]4C[C@@H](O)CC[C@]4(C)[C@H]3CC[C@]12C [3β5αP, epi-allopregnanolone] | 270 ± 90 | 0.77 ± 0.21 | 204.3 ± 4.5 % of control |  | **148.6 ± 4.9 % of control | absence of potentiation | ~ 25% and 23.0 ± 2.8% | Calculated steady-state Pdesensitized (α1β3 GABAAR; 20 nM muscimol + 3 µM 3β5αP): 0.2168; Steady-state Popen (α1β3 GABAAR; 20 nM muscimol + 3 µM 3β5αP): 0.009 ± 0.004; Popen of the steady-state response (α1β3 GABAAR; 1 mM GABA + 3 µM 3β5αP): 0.077 ± 0.013; Sum of (Popen + Pdesensitized) (α1β3 GABAAR; 1 mM GABA + 3 µM 3β5αP): 0.97; Steady-state Pdesensitized (α1β3 GABAAR; 1 mM GABA + 3 µM 3β5αP, Resting-Open-Desensitized model): 0.892; Effect on peak current amplitude (α1β3 GABAAR; co-application of 3 µM 3β5αP with 1 mM GABA): does not reduce; Effect on decay rate of GABA-elicited currents (α1β3 GABAAR; prolonged co-application of 1 mM GABA + 3 µM 3β5αP): increases
C#CCCO[C@H]1CC[C@H]2[C@@H]3CC[C@H]4CC5(CC[C@]4(C)[C@H]3CC[C@]12C)N=N5 [KK148] |  | 1.24 ± 0.12 | 434.5 ± 5.6 % of control | 1.35 ± 0.13 | **357.2 ± 8.1 % of control | absence of potentiation | 27.2 ± 6.0% | EC50 (α1(Q242L)β3 GABAAR; α1(Q242L)β3, 3 nM [3H]muscimol, read-out: EC50 for modulation of [3H]muscimol binding): 2200 ± 310 nM; EC50 (α1β3(Y284F) GABAAR; α1β3(Y284F), 3 nM [3H]muscimol, read-out: EC50 for modulation of [3H]muscimol binding): 1790 ± 440 nM
C#CCCO[C@@H]1CC[C@H]2[C@@H]3CC[C@H]4CC5(CC[C@]4(C)[C@H]3CC[C@]12C)N=N5 [KK150] |  |  |  |  |  | absence of potentiation | 2.1 ± 0.7% | 
